Laboratory results reported in ChEMBL document CHEMBL5104107, “Toward the Design of Ligands Selective for the C-Terminal Domain of TEADs” (J Med Chem, 2022).

Columns and labels:
[1] = molecular target: Transcriptional enhancer factor TEF-4 (Homo sapiens) (UniProt Q15562); assay: Binding affinity to recombinant TEAD2 (unknown origin) assessed as increase in thermal stability by thermal shift assay
[2] = molecular target: Transcriptional enhancer factor TEF-1 (Homo sapiens) (UniProt P28347); assay: Binding affinity to recombinant TEAD1 (unknown origin) assessed as increase in thermal stability by thermal shift assay
[3] = molecular target: Transcriptional enhancer factor TEF-4 (Homo sapiens) (UniProt Q15562); assay: Thermal stabilization of C-terminal human TEAD2 (217 to 447 residues) assessed as change in melting temperature by thermal shift assay

Sequence of Transcriptional enhancer factor TEF-4 (Homo sapiens) (Q15562 whole entry, the tested form may be a part): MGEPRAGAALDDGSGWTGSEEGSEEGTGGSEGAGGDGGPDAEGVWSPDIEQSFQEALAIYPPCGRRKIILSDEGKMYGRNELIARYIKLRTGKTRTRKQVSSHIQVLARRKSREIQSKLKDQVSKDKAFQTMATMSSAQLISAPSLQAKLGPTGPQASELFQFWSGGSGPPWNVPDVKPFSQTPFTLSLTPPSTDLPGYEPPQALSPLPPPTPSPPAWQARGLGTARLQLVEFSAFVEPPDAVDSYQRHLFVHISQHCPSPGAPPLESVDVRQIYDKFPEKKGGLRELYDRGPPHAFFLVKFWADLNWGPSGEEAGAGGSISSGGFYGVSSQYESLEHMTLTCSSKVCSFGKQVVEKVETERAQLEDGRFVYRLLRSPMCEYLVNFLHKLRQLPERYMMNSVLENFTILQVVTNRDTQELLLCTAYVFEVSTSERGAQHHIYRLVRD
Sequence of Transcriptional enhancer factor TEF-1 (Homo sapiens) (P28347 whole entry, the tested form may be a part): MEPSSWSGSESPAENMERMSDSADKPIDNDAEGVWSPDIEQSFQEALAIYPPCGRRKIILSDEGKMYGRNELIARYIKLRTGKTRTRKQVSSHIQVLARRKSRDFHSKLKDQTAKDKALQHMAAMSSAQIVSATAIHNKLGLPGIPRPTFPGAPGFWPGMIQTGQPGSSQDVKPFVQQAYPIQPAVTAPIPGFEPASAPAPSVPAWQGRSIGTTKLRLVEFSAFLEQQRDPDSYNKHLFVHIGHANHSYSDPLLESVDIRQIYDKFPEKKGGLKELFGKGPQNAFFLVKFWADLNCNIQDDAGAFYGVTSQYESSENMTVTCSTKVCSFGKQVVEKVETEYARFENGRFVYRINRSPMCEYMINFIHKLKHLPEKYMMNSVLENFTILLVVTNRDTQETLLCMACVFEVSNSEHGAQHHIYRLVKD

deltaT [1] [°C] | deltaT [2] [°C] | ΔTm [3] [°C] | SMILES
4.2 | 8.3 |  | CNS(=O)(=O)c1ccc(Nc2ccc(C(F)(F)F)cc2)c(-c2cn(C)cn2)c1
 |  | 0.95 | Nc1cccc(-c2cc[nH]n2)c1
